A melting point compilation (Tetko et al.; mined from patent text by program, amines drawn as free bases though some values may be those of a salt)

Structure (SMILES) | melting point
O=C(OCCCc1nc(-c2ccc(Cl)cc2)co1)c1ccccc1 | 47 to 47.5 °C
CCOC(=O)Cc1c(C)n(Cc2ccccc2)c2ccc(OCc3nc4ccccc4s3)cc12 | 106 to 107 °C
CC(=O)OCCN(C(=O)CBr)c1ccc(Cl)cc1C(=O)c1ccccc1F | 84 to 88 °C
NC(=NCC(F)(F)F)Nc1ccnc(CCCCc2nc(O)n[nH]2)n1 | 209 to 210 °C
CN(C)C(=O)C=C(c1ccc(-c2ccccc2)cc1)c1ccc(-c2ccccc2)cc1 | 121 °C
CCCc1sc(-c2ccccc2)nc1OC(=O)Nc1ccccc1 | 104 to 105 °C
CCOC(=O)c1c(CN(CC)CC)nc2sc3c(c2c1-c1ccc(OC)c(OC)c1)CCN(S(C)(=O)=O)C3 | 147 to 148 °C
CCN1C(c2ccccc2C(=O)c2ccc(Cl)cc2)=NCC1(C)C | 85 to 87 °C
CCOC(=O)Cn1c(CC(=O)O)cc2c(Cl)c(Cl)ccc21 | 205 to 207 °C
CC(C)(C)S(=O)(=O)N[C@H]1CC[C@H](C(=O)O)CC1 | 201 to 203 °C
COC=C(C(=O)OC)c1ccc(CC(=O)O)cc1 | 81 to 84 °C
CC(=O)OCc1c(C)n(Cc2ccccc2)c2c(OCc3ccc(F)cc3)nncc12 | 109 to 110 °C
CCCCc1ccc(CNC(=O)OC(C)(C)C)c(=O)n1Cc1ccc(-c2ccccc2-c2nnn[nH]2)cc1 | 105 °C
c1ccc(C(c2ccc3cccnc3c2)n2ccnc2)cc1 (centres undefined) | 111 °C
Nc1ccsc1C(=O)NCC1CCN(C[C@H]2COc3ccc(Cl)cc3O2)CC1 | 200 to 202 °C
O=CNc1nc(S)n[nH]1 | 260 to 262 °C
COc1cc(N2CCN(C3CCN(c4cccc5cccnc45)CC3)CC2)c2ncccc2c1 | 194 to 197 °C
CCOC(=O)C1=Cc2cc(Cl)cc(CO)c2OC1C(F)(F)F (centres undefined) | 98 to 100 °C
CCNc1nc(-c2ccc(NC(=O)NCc3cccnc3)cc2)ccc1C(=O)O | 216 to 218 °C
CC(=O)Nc1ccccc1-c1nc(C)c(-c2cccnc2)[nH]1 | 270 to 271 °C
Cn1c(=O)c2c(Oc3cccc(Cl)c3)cccc2n2cnc(-c3noc(C4CC4)n3)c12 | 201 to 203 °C
CCN[C@H]1CCC[C@H](Oc2ccc3[nH]ncc3c2C)C1 (relative stereo) | 95 to 97 °C
CC(C)[C@H](NC(=O)[C@H](CC(=O)OC(C)(C)C)NC(=O)CCCN)C(=O)OC(C)(C)C | 99 to 100 °C
CC(Cl)(Cl)C(NC(=O)c1cc(F)cc(F)c1)NC(=NC#N)Nc1cccnc1 (centres undefined) | 191 to 193 °C
CCOC(=O)C1[C@@H]2[C@@H](O)[C@@H]3O[C@H](c4ccccc4)OC[C@H]3O[C@H]12 (some centres undefined) | 137 to 139 °C

Structure (SMILES) | melting point
O=Cc1cccnc1SCc1ccccc1 | 71.5 to 73 °C
CCOc1ccc(C[N+](=O)[O-])c(C=CC[N+](=O)[O-])c1OCc1ccccc1 | 89 to 90 °C
O=C(Nc1cccc(F)c1)NC1CCN(S(=O)(=O)c2ccccc2)CC1 | 186 to 188 °C
O=c1c2ccccc2nc(-c2cc(-c3ccncc3)c(N3CCOCC3)s2)n1-c1ccc(Cl)cc1 | 195 to 197 °C
CC(=O)Nc1ccnc(-c2ccncc2)n1 | 218 to 220 °C
C#Cc1c(Cl)cccc1Cl | 97 to 98 °C
C=CCn1nc(OCC(=O)c2cccs2)c(-c2ccc(F)cc2)c1-c1ccc(S(C)(=O)=O)cc1 | 146 to 148 °C
ONCC1CCCCC1 | 61 to 63 °C
O=C(O)[C@H]1CC(=O)N(c2ccc(OCc3cccc(F)c3)cc2)C1 | 157 °C
CN(C(=O)C1CCCCC1)c1cccc(-c2nc(=O)c3ccccc3s2)n1 | 184 to 186 °C
[N-]=[N+]=NC(=O)c1ccc(-c2ccc(C(F)(F)F)cc2)s1 | 97 °C
O=Cc1ccc(-c2ncc(Cl)cn2)cc1 | 186 °C
CNc1cn(-c2cccnc2)nc1Cl | 104 to 106 °C
COC(=O)c1ccc(CCl)nc1 | 63.5 to 63.8 °C
COc1cc2c(cc1C#N)C1(CO2)C(=O)Nc2ccccc21 (centres undefined) | 185 to 186 °C
CCCn1nc2c(N)nc3ccccc3c2c1CC(C)(C)NS(C)(=O)=O | 130 to 139 °C
NC(=O)c1c(Cl)c(-c2ccccc2)n2c1CN(S(=O)(=O)c1ccccc1)CC2 | 250 to 252 °C
Cc1ccc(C2OC(CO)C(O)C(O)C2O)cc1Cc1ccc(-c2ccc(F)cc2)s1 (centres undefined) | 106 to 107 °C
Cn1ccnc1C(=O)c1cc(C(C)(C)C)c(O)c(C(C)(C)C)c1 | 172 to 174 °C
COc1c(OC2CCC3(CC2)OCC(C)(C)CO3)ccnc1C | 90 °C
CCCCc1nn(-c2cccc([N+](=O)[O-])c2)c(=O)n1Cc1ccc(-c2ccccc2S(N)(=O)=O)cc1 | 73 to 76 °C
CCc1cc2cc(F)ccc2[nH]1 | 41 to 42 °C
COc1cc2nc(N3CCc4c(cccc4C(=N)N4CCOCC4)C3)[nH]c(=O)c2cc1OC | 249 to 251 °C
CC1(C)CCC(C)(C)c2cc(N(CCCCOCc3ccccc3)C(=O)Nc3ccc(C(=O)O)cc3)ccc21 | 158 to 162 °C
